Measured values: article PMC6274279, “Novel Cholinesterase Inhibitors Based on O-Aromatic N,N-Disubstituted Carbamates and Thiocarbamates” (Molecules, 2016)
Like-named read-outs stand apart in the source and are kept apart here.

Key:
BChE from equine serum = target: T1, BChE from equine serum (Equus caballus, UniProt P81908); assay: Butyrylcholinesterase inhibition, spectrophotometric Ellman's method; assay type: biochemical; conditions: for Selectivity to BChE: IC50 for AChE/IC50 for BChE; for Selectivity Index for BChE: ratio of cellular toxicity (HepG2 IC50) and IC50 for BChE
T1 construct: butyrylcholinesterase was from equine serum; from tissue; host or cells: equine serum
T1 sequence (P81908 whole entry): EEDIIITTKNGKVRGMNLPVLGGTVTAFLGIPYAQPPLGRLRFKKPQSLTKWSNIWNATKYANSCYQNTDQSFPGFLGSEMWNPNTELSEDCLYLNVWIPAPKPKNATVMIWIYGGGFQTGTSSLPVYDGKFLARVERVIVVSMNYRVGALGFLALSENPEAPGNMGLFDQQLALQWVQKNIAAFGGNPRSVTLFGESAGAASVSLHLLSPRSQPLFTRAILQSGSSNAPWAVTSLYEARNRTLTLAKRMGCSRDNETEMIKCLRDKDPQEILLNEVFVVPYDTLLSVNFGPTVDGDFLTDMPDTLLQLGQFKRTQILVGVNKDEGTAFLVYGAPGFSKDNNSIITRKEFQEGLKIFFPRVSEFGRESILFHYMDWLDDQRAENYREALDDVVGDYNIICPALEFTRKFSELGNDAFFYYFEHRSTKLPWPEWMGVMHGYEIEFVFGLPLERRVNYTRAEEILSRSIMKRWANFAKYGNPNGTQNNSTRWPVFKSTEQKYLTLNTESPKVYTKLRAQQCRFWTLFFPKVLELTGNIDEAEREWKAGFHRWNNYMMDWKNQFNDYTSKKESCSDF
Method: (§1) The IC50 values were determined using the spectrophotometric Ellman’s method, which is a simple and rapid method to determine the SH and -S-S- groups content in proteins. This method is widely used for the evaluation of cholinesterase activity and screening the efficiency of ChE inhibitors. Cholinesterase activity is measured indirectly by quantifying the concentration of the 5-mercapto-2-nitrobenzoic acid ion formed in the reaction between the thiol reagent 5,5′-dithiobis(2-nitrobenzoic acid) and thiocholine, a product of substrate hydrolysis (i.e., acetylthiocholine, ATCh) by cholinesterases. Ellman’s method was modified slightly according to Zdrazilova et al..
(§2) The inhibitory potency of fifteen carbamates and five thiocarbamates was evaluated for AChE from electric eel and BChE from equine serum.
(§3) The IC50 values were determined using the spectrophotometric Ellman’s method. All of the tested compounds were dissolved in 0.01 M dimethyl sulphoxide and then diluted in demineralised water to 0.001 M and 0.0001 M. Ellman’s method was modified slightly according to Zdrazilova et al.. Acetylcholinesterase was obtained from electric eel (Electrophorus electricus L.) and butyrylcholinesterase was from equine serum.

AChE from electric eel = target: T2, AChE from electric eel (Electrophorus electricus, UniProt O42275); assay: Acetylcholinesterase inhibition, spectrophotometric Ellman's method; assay type: biochemical, electric eel (Electrophorus electricus L.); conditions: for Selectivity Index for AChE: ratio of cellular toxicity (HepG2 IC50) and IC50 for AChE
T2 construct: Acetylcholinesterase was obtained from electric eel (Electrophorus electricus L.); from tissue
T2 sequence (O42275 24-633): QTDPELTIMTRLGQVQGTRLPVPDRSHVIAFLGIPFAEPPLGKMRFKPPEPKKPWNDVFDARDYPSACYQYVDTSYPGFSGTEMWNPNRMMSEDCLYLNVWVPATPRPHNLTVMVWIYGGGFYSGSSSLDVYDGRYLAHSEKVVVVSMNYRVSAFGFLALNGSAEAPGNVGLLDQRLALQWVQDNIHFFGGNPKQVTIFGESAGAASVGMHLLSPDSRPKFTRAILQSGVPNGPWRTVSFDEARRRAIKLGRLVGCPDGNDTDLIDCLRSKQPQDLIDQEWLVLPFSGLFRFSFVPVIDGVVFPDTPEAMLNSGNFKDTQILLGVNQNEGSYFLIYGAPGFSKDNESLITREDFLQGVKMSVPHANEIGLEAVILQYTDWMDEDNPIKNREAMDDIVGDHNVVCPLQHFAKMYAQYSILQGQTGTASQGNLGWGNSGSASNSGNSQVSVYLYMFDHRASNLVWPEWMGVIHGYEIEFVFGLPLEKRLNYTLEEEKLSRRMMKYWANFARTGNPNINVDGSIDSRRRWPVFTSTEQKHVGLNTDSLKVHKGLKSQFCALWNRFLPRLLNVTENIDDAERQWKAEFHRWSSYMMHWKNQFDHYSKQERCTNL
Method: as §1, §2, §3

HepG2 cells = conditions: cited from earlier work
[1] = cytotoxicity determined previously, read-out: IC50 for HepG2
[2] = approximate value, read-out: IC50 values (cytotoxicity, HepG2)

| Compound | IC50 (BChE from equine serum) | Selectivity to BChE (BChE from equine serum) | IC50 (AChE from electric eel) | Selectivity Index for BChE (BChE from equine serum) | IC50 (HepG2 cells; [1]) | Selectivity Index for AChE (AChE from electric eel) | IC50 (HepG2 cells; [2]) |
| --- | --- | --- | --- | --- | --- | --- | --- |
| CN(C)C(=O)Oc1ccc(Cl)cc1C(=O)Nc1ccc(Cl)cc1 [1a] | 88.4 ± 1.27 µM | 0.8 | 72.9 ± 1.06 µM | – | – | – | – |
| CN(C)C(=S)Oc1ccc(Cl)cc1C(=O)Nc1ccc(Cl)cc1 [1b, O-{4-Chloro-2-[(4-chlorophenyl)carbamoyl]phenyl} dimethylcarbamothioate] | 51.4 ± 1.65 µM | 0.8 | 39 ± 1.11 µM | 1.6 | 83.5 µM | 2.1 | – |
| CN(C(=O)Oc1ccc(Cl)cc1C(=O)Nc1ccc(Cl)cc1)c1ccccc1 [1c] | 4.2 ± 0.18 µM | 17.8 | 74.8 ± 2.95 µM | 68.8 | 289 µM | – | – |
| O=C(Nc1ccc(Cl)cc1)c1cc(Cl)ccc1OC(=O)N(c1ccccc1)c1ccccc1 [1d] | 106 ± 3.64 µM | – | 54.8 ± 1.43 µM | – | – | – | – |
| CN(C)C(=O)Oc1ccc(Cl)cc1C(=O)Nc1ccc(Br)cc1 [2a] | 54.21 ± 0.3 µM | 1.2 | 62.4 ± 1.36 µM | – | – | – | – |
| CN(C)C(=S)Oc1ccc(Cl)cc1C(=O)Nc1ccc(Br)cc1 [2b] | 54.64 ± 0.42 µM | 1.1 | 59.1 ± 2.13 µM | – | – | – | – |
| CN(C(=O)Oc1ccc(Cl)cc1C(=O)Nc1ccc(Br)cc1)c1ccccc1 [2c, 2-[(4-bromophenyl)carbamoyl]-4-chlorophenyl methyl(phenyl)carbamate] | 4.3 ± 0.51 µM | 19.0 | 81.6 ± 2.92 µM | – | 945 µM | 11.6 | – |
| O=C(Nc1ccc(Br)cc1)c1cc(Cl)ccc1OC(=O)N(c1ccccc1)c1ccccc1 [2d] | 145 ± 29 µM | – | 63.3 ± 0.95 µM | – | – | – | – |
| CN(C)C(=O)Oc1ccc(Cl)cc1C(=O)Nc1ccc(F)cc1 [3a, 4-chloro-2-[(4-fluorophenyl)carbamoyl]phenyl dimethylcarbamate] | 311 ± 4.5 µM | – | 76.2 ± 2.87 µM | – | – | – | – |
| CN(C)C(=S)Oc1ccc(Cl)cc1C(=O)Nc1ccc(F)cc1 [3b, O-{4-chloro-2-[(4-fluorophenyl)carbamoyl]phenyl} dimethylcarbamothioate] | 91.4 ± 5.45 µM | 1.0 | 89.7 ± 4.68 µM | – | – | – | – |
| CN(C(=O)Oc1ccc(Cl)cc1C(=O)Nc1ccc(F)cc1)c1ccccc1 [3c] | 7.34 ± 0.14 µM | 8.5 | 62.5 ± 5.03 µM | 69.8 | 512 µM | 8.2 | – |
| O=C(Nc1ccc(F)cc1)c1cc(Cl)ccc1OC(=O)N(c1ccccc1)c1ccccc1 [3d] | 15.63 ± 0.11 µM | 3.1 | 49 ± 3.88 µM | – | – | – | – |
| CN(C)C(=O)Oc1ccc(Cl)cc1C(=O)Nc1ccc(C(F)(F)F)cc1 [4a, 4-chloro-2-{[4-(trifluoro-methyl)phenyl]carbamoyl}phenyl dimethylcarbamate] | 28.1 ± 0.86 µM | 1.7 | 49 ± 0.54 µM | – | 6510 µM | – | ~6000 µM |
| CN(C)C(=S)Oc1ccc(Cl)cc1C(=O)Nc1ccc(C(F)(F)F)cc1 [4b] | 36.22 ± 0.28 µM | 1.2 | 42 ± 0.55 µM | 1.9 | 67.3 µM | – | – |
| CN(C(=O)Oc1ccc(Cl)cc1C(=O)Nc1ccc(C(F)(F)F)cc1)c1ccccc1 [4c] | 1.97 ± 0.02 µM | – | 49.9 ± 2.76 µM | ˃50.8 | > 100 µM | – | – |
| O=C(Nc1ccc(C(F)(F)F)cc1)c1cc(Cl)ccc1OC(=O)N(c1ccccc1)c1ccccc1 [4d] | 49 ± 0.17 µM | 1.0 | 47.4 ± 2.78 µM | – | – | – | – |
| CN(C)C(=O)Oc1ccccc1C(=O)Nc1ccccc1 [5a] | 83.6 ± 6.84 µM | 0.7 | 57.7 ± 1.6 µM | 71.6 | 5990 µM | – | ~6000 µM |
| CN(C)C(=S)Oc1ccccc1C(=O)Nc1ccccc1 [5b] | 26.6 ± 2.78 µM | 2.3 | 61.9 ± 6.56 µM | – | – | – | – |
| CN(C(=O)Oc1ccccc1C(=O)Nc1ccccc1)c1ccccc1 [5c] | 11.4 ± 0.48 µM | 4.8 | 55 ± 2.46 µM | – | – | – | – |
| O=C(Nc1ccccc1)c1ccccc1OC(=O)N(c1ccccc1)c1ccccc1 [5d, 2-(phenylcarbamoyl)phenyl diphenylcarbamate] | 1.6 ± 0.01 µM | – | 53.8 ± 4.26 µM | 131.9 | 211 µM | – | – |
